Values after ≈ are worked out from the molar mass of the structure shown. Read-outs that look alike come from different tables or passages of the source. Each block holds one compound with its values, some of them ahead of it.
How the values were obtained:
Hepatitis B virus (HBV) = assay: Anti-HBV assay in 2.2.15 cells (virion DNA, HBV RI); format: cell-based; conditions: 9 days; for EC90: 10 fold inhibition
Experimental: The anti-HBV assays were performed according to the published protocol of Korba and Milman, (Korba, B. E.; Milman, G. Antiviral Res., 15, 217 1991), using cultures of 2.2.15 cells. In brief, the assay consisted of (a) seeding the chronically HBV-producing human liver cells (Acs et al. Proc. Nat. Acad. Sci., 84, 464 1987) into 24-well tissue culture plates, and growing to confluence, (b) adding test compounds daily for a continuous 9-day period, harvesting culture media after day 9 and (c) lysing treated cells 24 hours following day 9 of treatment for the analysis of extracellular virion DNA and intracellular HBV genomic forms.
Anti-HBV activity and the toxicity against confluent 2.2.15 cells were determined by the previously described procedure (Korba, B. E., et al. Antivir. Res., 19:55-70, 1992; Korba, B. E., et al. Antivir. Res., 15:217-228, 1991). Briefly, confluent cultures of HBV transfected 2.2.15 cells were maintained on either 96-well or 24-well flat-bottomed tissue culture plates in RPMI 1640 medium with 2% fetal bovine serum (FBS). The cells were treated with test compounds daily for nine consecutive days. The culture media were harvested on day 9 to quantify the amount of virion DNA. On day 10, the cells were lysed to quantify the amount of intracellular HBV replicative intermediates (RI). The quantification of virion DNA and the HBV RI were done by blot hybridization methods (Korba, B. E., et al. Antivir. Res., 19:55-70, 1992; Korba, B. E., et al. Antivir. Res., 15:217-228, 1991). Cellular toxicity against separate cultures of confluent 2.2.15 cells was measured after treatment with the compounds for nine days under identical culture conditions as those used for the antiviral assay (Korba, B. E., et al. Antivir. Res., 19:55-70, 1992). Uptake of neutral red dye by treated cells was compared with dye uptake by untreated control cells (Korba, B. E., et al. Antivir. Res., 19:55-70, 1992).

[1] = molecular target: T1, bacteriophage T7 RNA polymerase (Escherichia phage T7, UniProt P00573); assay: Transcription catalyzed by T7 RNA polymerase; format: biochemical
T1 construct: purchased Promega P2075
Experimental: To show whether the “fat” nucleotide Compound 15-2 (FNTP) is incorporated into RNA during transcription, experiments were performed using bacteriophage T7 RNA polymerase (RNAP) and a synthetic 42-mer DNA template shown below that is annealed to a 17-nucleotide promoter specific for T7 RNAP. This promoter-template enables the synthesis of 25-mer RNA, and the purine analogue may be incorporated in positions +1, +11, +13, +15, +21, +22, and +23.
Transcription reaction conditions were optimized with the use of ^32P CTP for labeling RNA transcripts. Polyacrylimide gel electrophoresis of the transcription products obtained from the 42-mer template, using 1 mM each of four natural NTPs, reveled a 25-mer RNA as the major product, together with shorter and longer labeled transcripts (FIG. 9, lane 1). The additional bands observed are consistent with the known ability of T7 RNA polymerase to add non-coded residues at the 3′-end of transcripts. (Milligan, J. F., et al., Nuc. Acids Res., 15, 8783-8798, 1987) With the use of 1 mM nucleotide Compound 15-2 (FNTP), the yield of transcription was reduced (lane 2).
With the use of a synthetic 37-mer DNA template, annealed to a 17-nucleotide promoter for T7 RNAP as shown below, a 20 nucleotide-long transcript RNA was obtained when the reaction mixture contained all four NTPs in appropriate concentrations, along with many shorter “abortive” fragments. (Milligan, J. F., et al., Nuc. Acids Res., 15, 8783-8798, 1987). For the reaction with modified nucleotide, typically
the concentration of the appropriate natural nucleotide was reduced. […] (Milligan, J. F., et al., Methods in Enzymol., 180, 51-63, 1989.) In the present experiments, the synthesis of RNA was compared under standard conditions (using 4 NTPs in 0.2 mM concentration each) with the synthesis of RNA by using an additional “fat” nucleoside triphosphate Compound 15-2 (FNTP) in varying (0.05-10 mM) concentrations. The reaction mixtures were incubated at 37° C. for 2 hours, and the products were denatured in a buffer containing urea. The products were separated by 20% polyacrylamide-urea gel electrophoresis and visualized by autoradiography.
Transcription samples (total volume 10 μL contained: 40 mM Tris-HCl pH 8.1 with 6 mM MgCl2, 5 mM dithiothreitol (DTT), 1 mM spermidine, 0.01% Triton-X 100, 50 μg/mL bovine serum albumin, 250 nM synthetic DNA template with a promotor for T7 RNAP, 4 units of T7 RNA polymerase, and 0.2 mM ribonucleoside triphosphates. A single α^32P-labeled NTP was added for labeling (typicallly 1 μL of 10 mCi/mL ). Inhibition assays were monitored with varying concentrations (0.05-10 mM) of nucleotide Compound 15-2. Polyacrylamide gel (20%) electrophoresis was performed on slab gels (18 cm×16 cm, or 35 cm×44 cm) containing 8M urea. […]

HCMV = assay: Cytopathic effect (CPE) inhibition assay, CMV in HFF cells; conditions: for EC50: Human betaherpesvirus 5, HFF, 336 h, read-out: Antiviral Activity (EC50), anti-HCMV; for SI (Selectivity Index), Neutral Red Uptake: IC50 (neutral red, stationary HFF) divided by anti-HCMV EC50; for SI (Selectivity Index), HFF Cells: IC50 (rapidly growing HFF) divided by anti-HCMV EC50
[2] = Cell proliferation assay, rapidly growing HFF cells; format: cell-based; conditions: human, rapidly growing human foreskin fibroblast (HFF) cells; for IC50 at 72 h: rapidly growing HFF cells, read-out: Cytotoxicity (IC50), HFF Cells
Experimental: The toxicity of Compounds 14-1 and 14-2 was also measured in rapidly growing human foreskin fibroblast (HFF) cells and Daudi cells by cell proliferation assay (National Institute of Allergy and Infectious Diseases (NIAID), NIH, Bethesda, Md.). According to the assay method, the appropriate cells were seeded in six-well plates in MEM containing 10% FBS. Twenty four hours later, the cells were treated with several dilutions of the test compounds covering a range of 0.03-100 μg/ml. The plates were incubated in a CO2 incubator at 37° C. for 72h. The cells were washed after removing the media and subsequently released from the plate wells by the addition of 1 ml of 0.25% trypsin. The contents in the wells were mixed, diluted with Isotone III and counted using a Coulter counter. The CC50 values (concentration of compound giving 50% inhibition of cell proliferation) were calculated by linear regression analysis. Toxicity of Compound 14-1 was also evaluated in bone marrow precursor cells by previously published procedure (Sommadossi, J.-P., et al., Biochem. Pharmacol., 44:1921-1925, 1992).
(A) Cell Proliferation Assay: Twenty-four hours prior to assay, cells (HFF or Daudi) were seeded in six-well plates at a concentration of 2.5×10^4 cells per well in MEM containing 10% FBS. On the day of the assay, drugs were diluted serially in MEM containing 10% FBS at increments of 1:5 covering a range from […]. For drugs that had to be solubilized in DMSO, control wells receive MEM containing 10% DMSO. The media from the wells was then aspirated, and 2 mL of each drug concentration was added to each well. The cells were incubated in a CO2 incubator at 37° C. for 72 h. At the end of this time, the media-drug solution was removed, and the cells were washed. Trypsin-EDTA (0.25%, 1 mL) was added to each well and incubated until the cells started to come off the plate. The cell-media mixture was then pipeted up and down vigorously to break up the cell suspension and 0.2 mL of the mixture added to 9.8 mL of Isoton III and the cells were counted using a Coulter Counter. Each sample was counted three times with two replicate wells per sample. The IC50 values were calculated using a computer program.

[3] = Neutral red uptake assay, stationary HFF cells; format: cell-based; conditions: human, read-out: Cytotoxicity (IC50), Neutral Red Uptake
Experimental: (B) Neutral Red Uptake Assay: Twenty-four hours prior to assay, HFF cells were plated into 96-well plates at a concentration of 2.5×10^4 cells/well. After 24 h, the media was aspirated, and […] of media containing drug was added to the first row of wells and then diluted serially 1:5 using the automated Cetus Liquid Handling System. The plates were then incubated in a Co2 incubator at 37° C. for 7 days. At this time the media/drug was removed, cells were washed, 200 μL/well of 0.01% neutral red in PBS was added, and the mixture was incubated for 1 h. The dye was removed, and the cells were washed using a Nunc Plate Washer. After the wash was removed, […] of 50% ethanol/1% aqueous acetic acid was added. The plates were placed on a rotating shaker for 15 min, and the optical densities were then read at 540 nm using a plate reader.
Data Analysis: Dose-response relationships were constructed by linearly regressing the percent inhibition of parameters derived in the preceding sections against log drug concentrations. Fifty-percent inhibitory (IC50) concentrations were calculated from the regression lines.

rabbit liver guanase = molecular target: T2, rabbit liver guanase (Oryctolagus cuniculus, UniProt G1T386); assay: Inhibition of guanase (Examples 10 and 11); format: biochemical; conditions: Lineweaver-Burk plot; for Ki: Tris buffer pH 7.6, 21° C., substrate guanine
T2 construct: employing rabbit liver guanase; from tissue; host or cells: rabbit liver
T2 sequence (G1T386 1-454): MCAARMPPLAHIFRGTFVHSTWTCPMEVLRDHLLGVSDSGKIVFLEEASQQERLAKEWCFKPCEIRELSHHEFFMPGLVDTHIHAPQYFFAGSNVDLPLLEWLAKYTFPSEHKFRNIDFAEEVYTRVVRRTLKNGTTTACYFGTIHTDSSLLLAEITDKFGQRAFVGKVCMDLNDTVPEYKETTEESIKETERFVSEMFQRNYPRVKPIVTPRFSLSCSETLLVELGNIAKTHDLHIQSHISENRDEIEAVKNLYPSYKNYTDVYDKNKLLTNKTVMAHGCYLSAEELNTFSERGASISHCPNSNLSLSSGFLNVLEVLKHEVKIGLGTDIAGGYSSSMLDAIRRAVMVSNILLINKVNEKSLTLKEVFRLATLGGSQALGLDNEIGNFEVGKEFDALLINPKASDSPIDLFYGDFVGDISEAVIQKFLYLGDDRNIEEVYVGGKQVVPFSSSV
Text: The concentration of the inhibitor ranged from 4×10^−5 M to 8×10^−5 M (Example 7), and 4.4×10^−5 M to 8.9×10^−5 M (Example 8). The concentration of the enzyme used for each assay was 0.0082 units/mL.

T1 sequence (P00573 whole entry): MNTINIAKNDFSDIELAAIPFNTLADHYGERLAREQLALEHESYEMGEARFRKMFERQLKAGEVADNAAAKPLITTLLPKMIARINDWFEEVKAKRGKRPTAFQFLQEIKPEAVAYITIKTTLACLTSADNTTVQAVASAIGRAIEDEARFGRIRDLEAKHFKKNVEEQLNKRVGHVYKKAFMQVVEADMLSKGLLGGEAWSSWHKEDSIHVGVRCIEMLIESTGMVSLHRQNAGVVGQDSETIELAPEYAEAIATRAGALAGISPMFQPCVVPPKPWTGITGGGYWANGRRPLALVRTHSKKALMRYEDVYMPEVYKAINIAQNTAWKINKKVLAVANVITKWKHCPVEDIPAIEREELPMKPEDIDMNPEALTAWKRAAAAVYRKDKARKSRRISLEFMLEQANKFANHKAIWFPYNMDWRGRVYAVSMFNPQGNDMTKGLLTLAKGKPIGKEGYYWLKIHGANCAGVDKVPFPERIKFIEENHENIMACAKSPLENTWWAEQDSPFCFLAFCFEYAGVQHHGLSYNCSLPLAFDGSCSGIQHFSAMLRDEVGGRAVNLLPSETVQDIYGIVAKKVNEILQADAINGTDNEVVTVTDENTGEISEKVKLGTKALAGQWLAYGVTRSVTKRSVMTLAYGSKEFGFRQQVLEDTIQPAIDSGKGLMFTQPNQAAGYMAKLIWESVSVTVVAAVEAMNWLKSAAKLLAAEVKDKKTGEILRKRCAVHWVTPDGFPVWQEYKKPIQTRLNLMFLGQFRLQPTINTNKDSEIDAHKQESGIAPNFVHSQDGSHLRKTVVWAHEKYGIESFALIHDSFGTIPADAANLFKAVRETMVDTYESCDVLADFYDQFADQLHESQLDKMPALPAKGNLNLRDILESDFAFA

SMILES: Nc1ccn([C@H]2CS[C@@H](CO)O2)c(=O)n1 [Compound 3TC, 2′,3′-dideoxy-L-3′-thiacytidine, reference compound]
EC90 (Hepatitis B virus (HBV); extracellular HBV virion DNA, read-out: EC90 Virion): 198 ± 20 nM | EC50 (Hepatitis B virus (HBV); extracellular HBV virion DNA, read-out: EC50 Virion): 65 ± 10 nM | EC90 (Hepatitis B virus (HBV); intracellular HBV DNA replicative intermediates, read-out: EC90 HBV RI): 922 ± 85 nM | EC50 (Hepatitis B virus (HBV); intracellular HBV DNA replicative intermediates, read-out: EC50 HBV RI): 172 ± 19 nM

SMILES: N=c1nc(N)nc(N)c2ncn([C@@H]3O[C@H](COP(=O)(O)OP(=O)(O)OP(=O)(O)O)[C@@H](O)[C@H]3O)c12 [Compound 15-2, 5′-triphosphate derivative of 4,6-diamino-8-imino-8H-1-β-D-ribofuranosylimidazo[4,5-e][1,3]diazepine]
incorporation into RNA during transcription (substrate for T7 polymerase) ([1]; 42-mer DNA template): not a substrate for T7 polymerase | inhibition of T7 RNA polymerase-catalyzed transcription ([1]; 42-mer and 37-mer DNA templates, 0.05-10 mM): inhibitor of T7 polymerase

SMILES: O=C1c2nc(Br)n(Cc3ccccc3)c2N(Cc2ccccc2)C(=O)CN1Cc1ccccc1 [Compound 19, 3,4,7-Tribenzyl-2-bromo-4,5,7,8-tetrahydro-6H-imidazo [4,5-e][1,4]diazepine-5,8-dione]
EC50 (HCMV): 8.1 µg/mL (≈ 15.7 µM) | SI (Selectivity Index), Neutral Red Uptake (HCMV): 10.9 | SI (Selectivity Index), HFF Cells (HCMV): 6.98 | IC50 at 72 h [2]: 56.5 µg/mL (≈ 110 µM) | IC50 at 7 days [3]: 88.1 µg/mL (≈ 171 µM) | melting point: 174 to 176 °C

melting point: > 220 °C
SMILES: N=c1nc(N)c2nc[nH]c2c(N)n1 [Example 1, 4,8-Diamino-6-imino-1H-imidazo[4,5-e][1,3]diazepine]

melting point: 202 to 204 °C
SMILES: N=c1nc(N)c2ncn(Cc3ccccc3)c2c(N)n1 [Example 3, 4,8-Diamino-1-benzyl-6-iminoimidazo[4,5-e][1,3]diazepine]

mode of inhibition of guanase (rabbit liver guanase): competitive inhibitors | Ki (rabbit liver guanase): 190000 nM
SMILES: COC(=O)C1(N)NC(=O)c2[nH]cnc2NC1=O (stereo not drawn) [Example 7, 6-Amino-6-methoxycarbonyl-4,5,7,8-tetrahydro-6H-imidazo[4,5-e]-[1,4]diazepine-5,8-dione]

mode of inhibition of guanase (rabbit liver guanase): competitive inhibitors | Ki (rabbit liver guanase): 540000 nM
SMILES: COC(=O)C1(OC)NC(=O)c2[nH]cnc2NC1=O (stereo not drawn) [Example 8, 6-Methoxy-6-methoxycarbonyl-4,5,7,8-tetrahydro-6H-imidazo[4,5-e][1,4]-diazepine-5,8-dione]

EC50 (HCMV): 0.05 µg/mL (≈ 0.196 µM)
SMILES: Nc1nc(O)c2ncn(COC(CO)CO)c2n1 [Ganciclovir, reference compound]
SI (Selectivity Index), Neutral Red Uptake (HCMV): >2000 | SI (Selectivity Index), HFF Cells (HCMV): 800 | CC50 at 72 h ([2]; Rapidly growing HFF cells): > 40 µg/mL | IC50 at 72 h [2]: 40 µg/mL (≈ 157 µM) | IC50 at 7 days [3]: > 100 µg/mL
